# Experimental data reported in patent US10723723B2, “Substituted bicycle heterocyclic derivatives useful as ROMK channel inhibitors” (BRISTOL-MYERS SQUIBB COMPANY, priority 2016, dated 2020).
# Biological target: hROMK (human Kir1.1) (Homo sapiens (Human), UniProt P48048)
# Assay: Thallium Flux Assay (FluxOR, CHO T-Rex hROMK stable cell line)
# Assay type: cell-based
# Details: CHO T-Rex hROMK cells, 10-point concentration response curve; read-out: Human ROMK TH Flux IC50
# Chain of hROMK (human Kir1.1) (P48048 whole entry): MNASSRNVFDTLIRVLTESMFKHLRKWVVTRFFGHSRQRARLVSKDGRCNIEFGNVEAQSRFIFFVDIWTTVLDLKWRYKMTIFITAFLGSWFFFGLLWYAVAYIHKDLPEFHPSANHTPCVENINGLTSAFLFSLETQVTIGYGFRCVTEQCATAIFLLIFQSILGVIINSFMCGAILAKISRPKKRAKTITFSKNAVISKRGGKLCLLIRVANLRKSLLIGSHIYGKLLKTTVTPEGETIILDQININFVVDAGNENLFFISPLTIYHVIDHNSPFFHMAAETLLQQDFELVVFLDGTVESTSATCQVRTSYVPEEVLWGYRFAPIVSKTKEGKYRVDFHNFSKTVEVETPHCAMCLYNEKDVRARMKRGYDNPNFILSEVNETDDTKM
row,Compound,IC50
1,"Cc1cc(-n2[nH]cc(CNC[C@H](O)c3ccc4c(c3C)COC4=O)c2=O)ncc1C#N [Example 36, (R)-6-(4-(((2-hydroxy-2-(4-methyl-1-oxo-1,3-dihydroisobenzofuran-5-yl)ethyl)amino)methyl)-5-oxo-2,5-dihydro-1H-pyrazol-1-yl)-4-methylnicotinonitrile]",390 nM
2,"Cc1c([C@@H](O)CNC(C)(C)c2cnn(-c3ccc4oc(=O)n(C)c4c3)c2)ccc2c1COC2=O [Example 37, (R)-5-(4-(2-((2-hydroxy-2-(4-methyl-1-oxo-1,3-dihydroisobenzofuran-5-yl)ethyl)amino)propan-2-yl)-1H-pyrazol-1-yl)-3-methylbenzo[d]oxazol-2(3H)-one]",930 nM
3,"Cc1cc(-n2cc(CCNC(=O)Cc3ccc4c(c3C)COC4=O)cn2)ncc1C#N [Example 38, N-(2-(1-(5-cyano-4-methylpyridin-2-yl)-1H-pyrazol-4-yl)ethyl)-2-(4-methyl-1-oxo-1,3-dihydroisobenzofuran-5-yl)acetamide]",340 nM
4,"Cc1cc(-c2cnc(CNC[C@H](O)c3ccc4c(c3C)COC4=O)nc2)ncc1C#N [Example 40, (R)-6-(2-(((2-hydroxy-2-(4-methyl-1-oxo-1,3-dihydroisobenzofuran-5-yl)ethyl)amino)methyl)pyrimidin-5-yl)-4-methylnicotinonitrile]",340 nM
5,"Cc1cc(-c2nc(CNC[C@H](O)c3ccc4c(c3C)COC4=O)n(C)n2)ncc1C#N [Example 42, (R)-6-(5-(((2-hydroxy-2-(4-methyl-1-oxo-1,3-dihydroisobenzofuran-5-yl)ethyl)amino)methyl)-1-methyl-1H-1,2,4-triazol-3-yl)-4-methylnicotinonitrile]",855 nM
6,"Cc1c([C@H](CNCc2cnn(-c3ccc4oc(=O)n(C)c4c3)c2)OC(=O)[C@H](N)C(C)C)ccc2c1COC2=O [Example 44, (R)-1-(4-methyl-1-oxo-1,3-dihydroisobenzofuran-5-yl)-2-(((1-(3-methyl-2-oxo-2,3-dihydrobenzo[d]oxazol-5-yl)-1H-pyrazol-4-yl)methyl)amino)ethyl D-valinate]",140 nM
7,"Cc1cn(-c2ccc(CNC[C@H](O)c3ccc4c(c3C)COC4=O)nn2)cn1 [Example 53, (R)-5-(1-hydroxy-2-(((6-(4-methyl-1H-imidazol-1-yl)pyridazin-3-yl)methyl)amino)ethyl)-4-methylisobenzofuran-1(3H)-one]",320 nM
8,"Cc1cc(-n2nc(C)c(CNC[C@H](O)c3ccc4c(c3C)COC4=O)n2)ncc1C#N [Example 58, (R)-6-(4-(((2-hydroxy-2-(4-methyl-1-oxo-1,3-dihydroisobenzofuran-5-yl)ethyl)amino)methyl)-5-methyl-2H-1,2,3-triazol-2-yl)-4-methylnicotinonitrile]",300 nM
9,"Cc1cc(-n2cc(CNC[C@H](NS(=O)(=O)C3CC3)c3ccc4c(c3C)COC4=O)cn2)ncc1C#N [Example 62, (R)-N-(2-(((1-(5-cyano-4-methylpyridin-2-yl)-1H-pyrazol-4-yl)methyl)amino)-1-(4-methyl-1-oxo-1,3-dihydroisobenzofuran-5-yl)ethyl)cyclopropanesulfon-amide]",390 nM
10,"Cc1cc(-n2cc(CNC[C@H](NC(=O)CO)c3ccc4c(c3C)COC4=O)cn2)ncc1C#N [Example 63, (R)-N-(2-(((1-(5-cyano-4-methylpyridin-2-yl)-1H-pyrazol-4-yl)methyl)amino)-1-(4-methyl-1-oxo-1,3-dihydroisobenzofuran-5-yl)ethyl)-2-hydroxyacetamide]",130 nM
11,"CN[C@@H](CNCc1cnn(-c2cc(C)c(C#N)cn2)c1)c1ccc2c(c1C)COC2=O [Example 64, (R)-4-methyl-6-(4-(((2-(4-methyl-1-oxo-1,3-diydroisobenzofuran-5-yl)-2-(methylamino)ethyl)amino)methyl)-1H-pyrazol-1-yl)nicotinonitrile]",430 nM
